Laboratory results from US4897391A, “Tricyclic anti-allergy, antiinflammatory and anti-hyperproliferative compounds” (Schering Corporation, priority 1988, dated 1990).

Legend:
[1] = test system: Reversed Passive Arthus Reaction (paw swelling); assay: Reversed Passive Arthus Reaction (RPAR) Assay; assay type: in vivo, Male Lewis inbred albino rats; conditions: 50 mg/kg p.o.; rat
Source text: Male Lewis inbred albino rats weighing 180-220 grams obtained from Charles River Breeding Laboratories are used in these experiments. House the rats 3 animals/cage and allow food and water ad libitum. Number the animals 1 to 3 in each cage and color mark them for identification purposes.
Prepare all reagents and drugs just prior to the study. Without shaking, solubilize crystallized and lyophilized bovine serum albumin (BSA), obtained from Sigma Chemical Company, in cold sterile pyrogen-free saline (10 mg/ml PFS). Suspend lyophilized anti-bovine serum albumin (IgG Fraction), obtained from Cappel Laboratories, in sterile distilled water and dilute with cold pyrogen-free saline (PFS) just prior to use. The final concentration of anti-bovine serum albumin will be 0.5 mg/ml of PFS. Both BSA and anti-BSA solutions should be iced during use. Suspend or solubilize drugs in an aqueous solution of methyl cellulose (MC) with a homogenizer just prior to administration.
Dose groups of animals (6/group) with drug in methyl cellulose (MC) by gastric lavage one hour prior to sensitization with BSA. Give controls MC alone and include drug-standard in each assay for verification purposes. Prepare drugs so as to provide a dose for a 200 gram animal which is equivalent to the mg/kg dose for the experiment. Thus each rat receives an oral dose in a volume of approximately 2.0 ml. […]

[2] = test system: Peptidoleukotriene Release in Guinea Pig Lung; assay: Peptidoleukotriene Release Inhibition in Lung Assay; assay type: cell-based; conditions: Cavia porcellus; final concentration of 50 μm (so in the source); ovalbumin challenge, sensitized guinea pig lung
Source text: The anti-allergy method of this invention is identified by tests that measure inhibition of leukotriene release in sensitized guinea pigs by compounds of the invention. This procedure is as follows.
First, kill sensitized guinea pigs by a blow to the head, remove the lungs and clean them of visible connective tissue, trachea and large blood vessels. Slice the lungs from individual animals into fragments approximately 1 mm in thickness using a McIlwain tissue chopper and wash them with oxygenated Tyrode's buffer. Transfer weighed aliquots (approximately 400 mg wet weight) of lung into vials containing 2 ml of fresh Tyrode's solution (containing 10 mM cysteine) and incubate in the presence or absence of test compound for 12 minutes at 37° C., challenge the tissues with 20 μg ovalbumin/ml (final concentration) and incubate for 15 minutes. To measure leukotriene release, extract an aliquot of supernatant fluid with 4 volumes of 100% ethanol. After removal of the precipitated protein, dry the clear fluid under a stream of N2 gas. Measure the leukotriene content by a radioimmunoassay using [^3 H]LTC4 (leukotriene C4) and antiserum obtained from New England Nuclear. […] Calculate percent inhibition of leukotriene release by comparing for each lung the release in the presence of the test compound to that in the absence of test compound.

5-lipoxygenase = biological target: T1, 5-lipoxygenase (Mus musculus, UniProt P48999); assay: 5-Lipoxygenase Assay (MC-9 mast cells, 5-HETE and LTC4 production); assay type: cell-based, murine; conditions: MC9, 50 μM dose; MC-9 cells; read-out: % Inhibition 5-HETE
T1 construct: Preincubate MC-9 cells (0.39 ml at 7.5×10^6 cells/ml) without or with test compound; endogenous in cells; host or cells: MC-9 murine mast cell clone (interleukin-3-dependent)
T1 sequence (P48999 1-674): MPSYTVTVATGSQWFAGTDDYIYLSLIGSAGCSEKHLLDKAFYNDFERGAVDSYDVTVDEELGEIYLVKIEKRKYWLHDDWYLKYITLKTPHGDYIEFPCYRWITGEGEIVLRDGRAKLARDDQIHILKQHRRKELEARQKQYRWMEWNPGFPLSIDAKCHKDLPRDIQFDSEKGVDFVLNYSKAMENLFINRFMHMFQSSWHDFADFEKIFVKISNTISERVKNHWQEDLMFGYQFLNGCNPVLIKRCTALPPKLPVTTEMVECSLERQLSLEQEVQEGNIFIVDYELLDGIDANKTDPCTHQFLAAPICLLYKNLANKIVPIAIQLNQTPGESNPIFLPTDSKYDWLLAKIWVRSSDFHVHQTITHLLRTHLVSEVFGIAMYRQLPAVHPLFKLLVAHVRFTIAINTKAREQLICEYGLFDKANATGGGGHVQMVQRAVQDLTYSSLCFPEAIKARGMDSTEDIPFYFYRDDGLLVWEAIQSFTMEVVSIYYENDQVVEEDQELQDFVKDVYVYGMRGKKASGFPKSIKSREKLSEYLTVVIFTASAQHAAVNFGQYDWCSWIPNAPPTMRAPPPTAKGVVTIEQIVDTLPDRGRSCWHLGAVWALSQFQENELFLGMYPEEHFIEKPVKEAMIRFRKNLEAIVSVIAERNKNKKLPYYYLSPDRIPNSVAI
Protocol: Preincubate MC-9 cells (0.39 ml at 7.5×10^6 cells/ml) without or with test compound dissolved in dimethylsulfoxide (DMSO) vehicle (to a final volume 1 μl) for 4 minutes then incubate for 5 minutes with [^14 C]arachidonic acid (Amersham, 59 Ci/mole) at a 9 μM final concentration, and A23187 (Calbiochem) at a 1 μM final concentration in 10 μl of water:ethanol (9:1). Stop the reaction by addition of methanol (0.4 ml), and remove cellular debris by centrifugation. Run aliquots (250 μl) of the incubations on a Waters two-pump HPLC system fitted with a Waters radial compression column (C18, 10 micron, 8×100 mm, micro-Bondapak) and C18 "Guard Pak". Initially elute the column at 3 ml/min with water:methanol:acetic acid (67:33:0.08) containing 1 mM EDTA adjusted to pH 6.0 with ammonium hydroxide (Pump A). At 4 minutes, establish a linear gradient to reach 100% methanol (Pump B) at 9 minutes. Between 13 and 14 minutes, exchange for the initial eluting solvent and by 19 minutes the column will be reequilibrated for the next sample. Analyze the effluent by a continuous flow radioactivity monitor (model ROMONA-D) interfaced with a Hewlett Packard Lab Automation System for quantitation of radioactive products. […] Doses in table 2 are 50 μM unless otherwise noted.

inhibition at 50 µM (5-lipoxygenase): 8%
Compound: COc1cc(OC)c2c(C)c3n(c(=O)c2c1)CCCC3 [Compound E, 8,10-bis(methoxy)-1,2,3,4-tetrahydro-11-methyl-6H-benzo[b]quinolizin-6-one]
inhibition of paw swelling [1]: 59% | inhibition at 50 µM [2]: 33%
